# Legend:
# PaSecA = target: T1, PaSecA (Pseudomonas aeruginosa, UniProt Q9LCT3); assay: SecA-liposomes ion-channel activity in Xenopus oocytes (two-electrode voltage clamp); assay type: cell-based, P. aeruginosa; conditions: injected PaSecA-liposomes in oocytes
# T1 construct: made in house; host or cells: E. coli BL21.19
# [1] = target: T2, E. coli SecA translocation ATPase (Escherichia coli, UniProt P10408); assay: In vitro translocation ATPase inhibition kinetics; assay type: biochemical; conditions: requires SecYEG and precursors
# T2 construct: made in house; host or cells: E. coli BL21(λDE3)/pT7-SecA (SecA); E. coli membranes supply SecYEG
# T2 sequence (P10408 whole entry): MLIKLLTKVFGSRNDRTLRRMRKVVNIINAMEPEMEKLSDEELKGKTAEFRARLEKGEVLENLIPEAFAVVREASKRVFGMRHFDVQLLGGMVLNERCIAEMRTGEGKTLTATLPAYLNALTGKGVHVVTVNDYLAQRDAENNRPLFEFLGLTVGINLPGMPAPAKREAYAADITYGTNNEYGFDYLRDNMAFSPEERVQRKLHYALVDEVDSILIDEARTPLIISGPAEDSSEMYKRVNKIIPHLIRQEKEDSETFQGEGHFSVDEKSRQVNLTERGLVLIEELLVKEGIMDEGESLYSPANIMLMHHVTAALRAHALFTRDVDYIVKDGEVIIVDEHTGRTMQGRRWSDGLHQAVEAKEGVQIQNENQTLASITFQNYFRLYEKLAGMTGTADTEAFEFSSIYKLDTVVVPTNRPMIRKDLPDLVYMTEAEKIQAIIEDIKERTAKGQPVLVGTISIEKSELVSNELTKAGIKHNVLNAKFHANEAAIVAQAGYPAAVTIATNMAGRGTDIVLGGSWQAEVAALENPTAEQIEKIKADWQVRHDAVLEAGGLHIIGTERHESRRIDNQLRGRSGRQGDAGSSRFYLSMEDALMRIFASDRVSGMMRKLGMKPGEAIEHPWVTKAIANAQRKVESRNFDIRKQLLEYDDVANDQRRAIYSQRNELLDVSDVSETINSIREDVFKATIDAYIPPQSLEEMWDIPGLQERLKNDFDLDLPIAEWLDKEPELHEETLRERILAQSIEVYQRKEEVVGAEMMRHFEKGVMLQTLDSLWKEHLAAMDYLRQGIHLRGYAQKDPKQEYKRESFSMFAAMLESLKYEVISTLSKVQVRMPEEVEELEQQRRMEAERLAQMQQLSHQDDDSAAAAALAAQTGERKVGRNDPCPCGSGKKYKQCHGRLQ
# T2 sequence (P0AGA2 whole entry, further chain): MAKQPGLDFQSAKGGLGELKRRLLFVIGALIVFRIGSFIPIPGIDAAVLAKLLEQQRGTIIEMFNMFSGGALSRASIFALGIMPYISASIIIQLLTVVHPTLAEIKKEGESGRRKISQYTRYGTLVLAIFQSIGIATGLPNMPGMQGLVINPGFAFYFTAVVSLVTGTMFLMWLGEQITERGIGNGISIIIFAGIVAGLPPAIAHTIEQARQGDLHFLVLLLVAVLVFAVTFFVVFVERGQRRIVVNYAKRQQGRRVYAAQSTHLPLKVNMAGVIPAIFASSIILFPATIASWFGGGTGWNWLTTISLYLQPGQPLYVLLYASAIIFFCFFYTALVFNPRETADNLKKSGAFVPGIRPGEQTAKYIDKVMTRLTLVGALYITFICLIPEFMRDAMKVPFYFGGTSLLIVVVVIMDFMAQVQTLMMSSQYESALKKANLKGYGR
# T2 sequence (P0AG96 whole entry, further chain): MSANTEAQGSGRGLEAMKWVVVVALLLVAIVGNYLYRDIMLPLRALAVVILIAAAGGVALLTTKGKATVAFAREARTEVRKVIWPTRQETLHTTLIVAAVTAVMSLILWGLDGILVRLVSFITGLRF
# T2 sequence (P0AG99 whole entry, further chain): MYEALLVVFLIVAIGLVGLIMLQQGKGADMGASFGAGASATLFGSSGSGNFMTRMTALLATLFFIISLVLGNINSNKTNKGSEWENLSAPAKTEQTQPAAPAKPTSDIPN
# [2] = target: Soluble SecA intrinsic ATPase (Escherichia coli, UniProt P10408); assay: Soluble SecA intrinsic ATPase inhibition kinetics; assay type: biochemical; conditions: data not shown
# Sequence of Soluble SecA intrinsic ATPase (P10408 whole entry): as the sequence (P10408 whole entry) above
# EcSecA = target: T3, EcSecA (Escherichia coli, UniProt P10408); assay type: cell-based, E. coli; conditions: channel activity assay
# T3 construct: made in house; host or cells: E. coli BL21(λDE3)/pT7-SecA
# T3 sequence (P10408 whole entry): as above
# Cx26 = target: T4, Cx26 (Homo sapiens, UniProt P29033); assay: Cx26-proteoliposome hemi-channel activity in Xenopus oocytes; assay type: cell-based
# T4 construct: His6 (C); made in house; host or cells: insect Sf9 cells, Bac-to-Bac baculovirus system
# Method: Voltage Clamp was performed to measure the opening of protein conducting channels. When the channel on the cell membrane was opened, ions pass through the membrane and generate the ionic current. Thus, the recording of ionic current could also mean the opening of the protein conducting channel. Currents through the plasma membranes of oocytes were measured after the oocytes were injected with tested materials. The cells were place in a recording chamber (BSC-HT, Medical System, Greenvale, N.Y.) on a supporting nylon mesh, so that the perfusion solution bathed both the top and the bottom surface of the oocytes. Two electrode voltage clamping was performed using an amplifier (Geneclamp 500, Axon instruments Inc., Foster City, Calif.) at room temperature (23-25° C.). Cells were impaled using electrodes filled with 3 M KCl. One of the electrode (1.0-2.0 MΩ) used for voltage recording was connected to the HS-2×1 L headstage (input resistance, […]), and the other electrode (0.3-0.6 MΩ) was used for current recording to the HS-2×10 MG headstage (maximum current, 130 μA). The electrode was connected through a silver wire that was chloridized freshly for each experiment. Oocytes were used for further experiments only if their leak currents measured as the difference before and after a leak subtraction were less than 10% of the peak currents. The leak subtraction was not applied for data acquisition and analysis. Current records were low-pass filtered (Bessel, 4-pole filter, 3 db at 5 kHz), digitized at 5 kHz (12 but resolution), and analyzed using pClamp6 (Axon Instruments). The highest and lowest records were eliminated, and then the data are presented as mean±S.E. (standard error; n, number of oocytes). The expression rates for each injection sample were also collected as a record to determine the channel activity efficiency.
# The E. coli liposomes treated with detergent were mixed with purified Cx26 protein at 10:1 ratio. Then the mixture was dialyzed in dialysis solution (0.25 M Sucrose, 0.4 M KOAC, 20 mM triethanolamine hydrocholoride pH7.5, 1.5 mM Mg(OAC)2 and 1 mM EDTA) at 4° C. for 15-18 hours to reconstitute the Cx-26-proteoliposomes.
# 10 ng reconstituted Cx26-proteoliposomes was mixed with or without EGTA or CaCl2 and injected into oocytes. The injected oocytes were incubated at 23° C. for 30 mins with 1.8 mM CaCl2 to suppress the bubbling. Recording bath solution was 90K (90 mM KCl, 5 mM HEPES, 3 mM MgCl2) without Ca^2+. For Ca^2+ inhibition, the CaCl2 was added in the extracellular recording bath solution during the recording.
# T1 sequence (Q9LCT3 whole entry): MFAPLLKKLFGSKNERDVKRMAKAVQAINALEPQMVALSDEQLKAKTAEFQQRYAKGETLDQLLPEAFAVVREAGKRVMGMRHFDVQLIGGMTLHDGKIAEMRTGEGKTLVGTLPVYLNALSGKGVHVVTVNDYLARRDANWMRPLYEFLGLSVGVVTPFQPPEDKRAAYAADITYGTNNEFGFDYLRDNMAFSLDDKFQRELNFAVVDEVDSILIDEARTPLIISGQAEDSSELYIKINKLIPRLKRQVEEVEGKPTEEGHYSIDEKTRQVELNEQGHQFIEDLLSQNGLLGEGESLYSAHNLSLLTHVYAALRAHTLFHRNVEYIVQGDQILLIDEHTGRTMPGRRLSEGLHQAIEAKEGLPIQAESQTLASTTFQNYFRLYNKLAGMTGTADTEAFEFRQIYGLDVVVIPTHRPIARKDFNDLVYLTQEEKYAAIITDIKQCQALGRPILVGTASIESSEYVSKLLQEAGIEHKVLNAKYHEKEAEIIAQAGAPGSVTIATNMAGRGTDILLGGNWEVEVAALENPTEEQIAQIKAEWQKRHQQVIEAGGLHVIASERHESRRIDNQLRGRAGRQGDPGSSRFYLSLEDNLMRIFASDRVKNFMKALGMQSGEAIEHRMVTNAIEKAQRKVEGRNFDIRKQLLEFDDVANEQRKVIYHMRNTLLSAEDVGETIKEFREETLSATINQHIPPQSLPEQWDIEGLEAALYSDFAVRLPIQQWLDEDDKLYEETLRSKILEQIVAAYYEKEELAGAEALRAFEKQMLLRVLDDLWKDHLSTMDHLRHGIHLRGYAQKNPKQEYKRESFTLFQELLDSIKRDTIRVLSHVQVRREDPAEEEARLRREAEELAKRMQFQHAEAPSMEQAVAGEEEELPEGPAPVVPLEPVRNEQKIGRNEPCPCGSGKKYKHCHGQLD
smiles,measurement,setting,value
"O=C(O)c1c(Cl)c(Cl)c(Cl)c(Cl)c1-c1c2cc(I)c(=O)c(I)c-2oc2c(I)c(O)c(I)cc12 [RB, Rose Bengal]","Inhibition kinetics with ATP, channel activity",PaSecA,non-competitive
same,Inhibition kinetics with ATP,[1],non-competitive
same,Inhibition kinetics with RB,[2]; high ATP,competitive
same,Inhibition kinetics with RB,[2]; low ATP,non-competitive
Oc1ccc2c(c1)Oc1cc(O)ccc1C2C1CCCCC1 [22d],Potency against EcSecA relative to BsSecA,EcSecA,about 2 fold
O=C(O)CN(CCOCCOCCN(CC(=O)O)CC(=O)O)CC(=O)O [EGTA],Cx26 channel current,"Cx26; 10 mM EGTA in extracellular recording bath, from 2 μA",7 μA
same,Cx26 hemi-channel activity (current),"Cx26; co-injection with 5 mM EGTA, Cx26-liposomes alone around 2 μA",7 μA
[Ca+2].[Cl-].[Cl-] [CaCl2],Cx26 channel current,"Cx26; 30 mM CaCl2 added to same extracellular bath after EGTA, 2 mins incubation",1.3 μA
same,Effect on Cx26 channel activity,Cx26; CaCl2 co-injected with 5 mM EGTA,reduced the activity
same,Half-time of inhibition of Cx26 channel activity,Cx26; CaCl2 in extracellular bath solution,about 1 min
same,Effect on Cx26 channel activity,Cx26; co-injection with 2 mM CaCl2,slightly inhibited
